From ChEMBL document CHEMBL1148830, “Discovery and investigation of antiproliferative and apoptosis-inducing properties of new heterocyclic podophyllotoxin analogues accessible by a one-step multicomponent synthesis” (2007) come the findings set out here.

Experiment [1] deals with HeLa. The experiment is described as follows: Antiproliferative activity against HeLa cells assessed as cell viability at 5 uM after 48 hrs by MTT assay relative to control. Type of experiment: functional. The conditions noted are these: Homo sapiens, read-out: Activity.
A short description of experiment [2]: Antiproliferative activity against human MCF7/AZ cells assessed as cell viability at 5 uM after 48 hrs by MTT assay relative to control. Type of experiment: functional. The conditions noted are these: read-out: Activity.
Experiment [3] concerns Jurkat. The experiment is described as follows: Antiproliferative activity against human Jurkat cells assessed as cell viability at 5 uM after 48 hrs by MTT assay. The format is functional. The conditions noted are these: read-out: Activity.
Experiment [4] deals with Jurkat. The experiment can be described thus: Induction of apoptosis in Jurkat cells assessed as cell viability at 5 uM after 48 hrs by flow cytometry Annexin-V/propidium iodide assay. The format is functional. The conditions noted are these: Homo sapiens, read-out: Activity. (A flow cytometer gives signals particle by particle.)
The subject of experiment [5] is HeLa. The experiment is described as follows: Growth inhibition of HeLa cells after 48 hrs by MTT assay. Type of experiment: functional. The conditions noted are these: Homo sapiens. Background: Formazan colour is commonly taken as a measure of viable cells.
Experiment [6] has as its system Jurkat. The experiment can be described thus: Increase in caspase 3 activation in Jurkat cells at 5 uM. Type of experiment: functional.
For experiment [7], the system named is Jurkat. The experiment is described as follows: Effect on apoptosis in Jurkat cells assessed as cleavage of procaspase 3 to active enzyme at 5 uM. Type of experiment: functional, cell-based. The conditions noted are these: Homo sapiens.
The test system of experiment [8] is Jurkat. The experiment can be described thus: Effect on apoptosis in Jurkat cells assessed as cleavage of PARP at 5 uM. The format is functional, cell-based. The conditions noted are these: Homo sapiens.
In experiment [9] the test system is Lymphocyte. The experiment can be described thus: Induction of apoptosis in human whole blood lymphocytes after 24 hrs by flow cytometric Annexin-V/propidium iodide assay. Type of experiment: functional, cell-based.
The subject of experiment [10] is Jurkat. The experiment can be described thus: Induction of apoptosis in Jurkat cells after 24 hrs by flow cytometric Annexin-V/propidium iodide assay. The format is functional, cell-based. The conditions noted are these: Homo sapiens.
Experiment [11] has as its system HeLa. The experiment can be described thus: Antiproliferative activity against HeLa cells assessed as cell viability at 50 uM after 48 hrs by MTT assay. The format is functional. The conditions noted are these: Homo sapiens, read-out: Activity.
Experiment [12] in a line: Antiproliferative activity against human MCF7/AZ cells assessed as cell viability at 50 uM after 48 hrs by MTT assay. Type of experiment: functional. The conditions noted are these: read-out: Activity.
Experiment [13] concerns Jurkat. The experiment is described as follows: Antiproliferative activity against human Jurkat cells assessed as cell viability at 50 uM after 48 hrs by MTT assay. The format is functional. The conditions noted are these: read-out: Activity.
For experiment [14], the system named is Jurkat. The experiment can be described thus: Induction of apoptosis in Jurkat cells assessed as cell viability at 50 uM after 48 hrs by flow cytometry Annexin-V/propidium iodide assay. The conditions noted are these: Homo sapiens, read-out: Activity. The format is functional.
Experiment [15] relates to Jurkat. The experiment is described as follows: Effect on apoptosis in Jurkat cells assessed as DNA laddering after 24 hrs at 1 uM. The format is functional, cell-based. The conditions noted are these: Homo sapiens.
Experiment [16] has as its system Jurkat. The experiment can be described thus: Effect on apoptosis in Jurkat cells assessed as DNA laddering after 24 hrs. The format is functional, cell-based. The conditions noted are these: Homo sapiens.
The test system of experiment [17] is Jurkat. The experiment can be described thus: Increase in caspase 3 activation in Jurkat cells at 1 uM. The format is functional, cell-based. The conditions noted are these: Homo sapiens.
Experiment [18] relates to Jurkat. The experiment can be described thus: Effect on apoptosis in Jurkat cells assessed as cleavage of procaspase 3 to active enzyme at 1 uM. Type of experiment: functional, cell-based. The conditions noted are these: Homo sapiens.
The test system of experiment [19] is Jurkat. The experiment is described as follows: Effect on apoptosis in Jurkat cells assessed as cleavage of PARP at 1 uM. The format is functional, cell-based. The conditions noted are these: Homo sapiens.

Molecules are shown by their SMILES. Activity calls are given as the source filed them. No cut-off for these calls is given here.

Usually GI50 stands for the concentration giving 50% growth inhibition. Turning to `COc1cc([C@@H]2c3cc4c(cc3[C@H](O)[C@H]3COC(=O)[C@H]23)OCO4)cc(OC)c1OC` [PODOFILOX], the viability at 5 µM in experiment [1] stood at 19%; in [2], 55%; in [3], 18%; in [4] it was 54%. The compound further came in with a GI50 in experiment [5] of 0.02 µM. Further, the outcome in experiment [6] (Homo sapiens), in experiment [7], in experiment [8] and in [10] was Active. Moreover, the result in [9] was inactive.
With `COc1cc([C@@H]2c3cc4c(cc3[C@@H](O[C@@H]3O[C@@H]5CO[C@@H](C)O[C@H]5[C@H](O)[C@H]3O)[C@H]3COC(=O)[C@H]23)OCO4)cc(OC)c1O` [ETOPOSIDE], the viability at 5 µM in experiment [1] amounted to 91%; in [2], 76%; in experiment [3], 75%; in experiment [4] it was 4%. The same compound showed a GI50 in experiment [5] of 8 µM. Besides, the viability at 50 µM in experiment [11] was determined as 15%; in experiment [12] it was 57%; in [13], 50%; in [14] it was 61%. In addition, the result in experiment [15] and in [9] was inactive. Also, in experiment [10], the result was Active.
Consider `COc1cc(C2C3=C(COC3=O)Nc3[nH]nc(C)c32)cc(OC)c1OC` (stereo unspecified), for which the viability at 5 µM worked out at 50% in experiment [1], 58% in experiment [2], 47% in experiment [3] and 55% in experiment [4]. Besides, growth in experiment [5] was halved (GI50) at 5 µM. In experiment [6], this compound had a Fold change of 3. Besides, the outcome in experiment [7], in [8], in experiment [16] and in experiment [10] was Active. Further, in experiment [9], the result was inactive.
With `CC[C@]1(O)C[C@@H]2CN(CCc3c([nH]c4ccccc34)[C@@](C(=O)OC)(c3cc4c(cc3OC)N(C)[C@H]3[C@@](O)(C(=O)OC)[C@H](OC(C)=O)[C@]5(CC)C=CCN6CC[C@]43[C@@H]65)C2)C1`, the outcome in experiment [17], in [18] and in [19] was Active.
